According to patent US8008088B2, “SMMR (small molecule metabolite reporters) for use as in vivo glucose biosensors” (Masimo Laboratories, Inc., priority 2003, dated 2011):
Like-named read-outs stand apart in the source and are kept apart here.

What was measured:
[1] = Fluorescence and absorption response of boronic acid reporters to glucose in buffer solution (in vitro); settings: for rise in fluorescence intensity on addition of glucose: glucose changed from zero to 300 mg/dL
[2] = test system: PHK cells; assay: In-vitro detection in PHK cells loaded with reporter, two-photon fluorescent imaging; assay type: cell-based; settings: reporter 50 micromolar; glucose increased to 300 mg/dl; EM 440 nm, excitation (2P) 705 nm
Method: PHK cells were loaded with AF-327d reporter, at 50 micromolar concentration, in buffer. Fluorescence was measured using a two-photon fluorescent imaging system at approximately EM 440 nm, and excitation at (2P) 705 nm. Pictures taken 10 minutes apart show a slight change in fluorescence intensity upon increasing the glucose concentration to 300 mg/dl in the cell buffer medium. This is seen clearly, as a 20% decrease in time course of fluorescence.

[3] = Glucose response rate in stirred cuvette, pH 8 phosphate buffer; settings: 100 μL of 300 mg/dL glucose added; monitored every 15 seconds; ex 340 nm, em 440 nm
Method: Arg-327 unprotected batches were prepared. One batch was supplied as a yellow powder and the other as a concentrated solution in deuterated methanol. A small sample of these materials was taken and dissolved in 3 ml of pH 8 phosphate buffer. The fluorescence of these materials was excited at 340 nm and the emission monitored at 440 nm. The fluorescence was monitored every 15 seconds in a stirred cuvette. After about 3 minutes 100 μL of 300 mg/dL glucose in pH 8 buffer was added. […] Similar results were obtained for both samples.

[4] = pH dependency of esculetin spectra (pKa determination); assay type: physicochemical
Description: The intensity of the fluorescence varies with pH but not the emission wavelength. The absorption spectrum did change with pH, implying the molecule could be used ratiometrically to measure pH using one monitoring wavelength and two excitation wavelengths. The relevant spectra are shown here together with a plot of absorption ratio as a function of pH (FIG. 45).

[5] = Absorption and emission spectra of fluorescein and BeXan (Table 4); assay type: physicochemical
Description: The configuration of the dye is strongly influenced by the nature of the heteroatom substitution. The structure of the dye responsible for the absorption may be estimated by consideration of the photophysical properties of related compounds and calculations on them. For example comparison of fluorescein and BeXan type dyes are shown in FIGS. 21a and 21b, with structures shown in Schemes 11 and 12, respectively.

[6] = hydroxyl group at position 3; cited from earlier work
[7] = protonated, first (high energy) band
[8] = protonated, second (low energy) band

O=C(Nc1ccc2c(C(F)(F)F)cc(=O)oc2c1)c1ccc(B(O)O)cc1 [AF-327d]
fluorescence emission (em) [1]: 440 nm
fluorescence excitation (ex) [1]: 340 nm
long wavelength absorption maximum [1]: 333 nm
response to glucose in vitro (in words) [1]: stronger response to glucose than other published compounds
change of absorption spectrum at the excitation wavelength ([1]; as a function of glucose concentration): less than 10%
rise in fluorescence intensity on addition of glucose [1]: 60%
Emission Wavelength ([1]; with and without added glucose at pH=7): 440 nm
decrease in time course of fluorescence [2]: 20%
glucose response rate (fluorescence versus time) [3]: increased immediately

O=C(Nc1ccc([N+](=O)[O-])cc1)c1ccc(B(O)O)cc1 [AF-339]
response to glucose in vitro (in words) [1]: weaker than AF-327

O=C(/C=C/c1ccc(B(O)O)cc1)c1cc2ccccc2oc1=O [AF-343]
response to glucose in vitro (in words) [1]: No fluorescence or glucose effect

O=C(Nc1ccc2oc(=O)c3ccccc3c2c1)c1ccc(B(O)O)cc1 [AF-345]
fluorescence emission (em) [1]: 435 nm
fluorescence excitation (ex) [1]: 330 nm
rise in fluorescence intensity on addition of glucose [1]: 30%

O=c1ccc2cc(O)c(O)cc2o1 [esculetin, 6,7 dihydroxycoumarin]
pKa [4]: 7.5

fluorescein
Difference in energy of protonated absorption bands [5]: 3.6 kcal/mol
Stokes shift for deprotonated bands [5]: 4.1 kcal/mol
Stokes shift for protonated bands [5]: 3.8 kcal/mol
Band position relative to the high-energy protonated absorption band, Absorption ([5]; Deprotonated band): 5.7 kcal/mol
Band position relative to the high-energy protonated absorption band, Emission ([5]; Deprotonated band): 9.8 kcal/mol
Band position relative to the high-energy protonated absorption band, Absorption ([5]; High energy protonated band): 0 kcal/mol
Band position relative to the high-energy protonated absorption band, Emission ([5]; High energy protonated band): 7.4 kcal/mol
Band position relative to the high-energy protonated absorption band, Absorption ([5]; Low energy protonated band): 3.6 kcal/mol
Band position relative to the high-energy protonated absorption band, Emission ([5]; Low energy protonated band): 9.9 kcal/mol
Absorption Energy ([5]; deprotonated): 57.1 kcal/mol
Absorption Wavelength ([5]; deprotonated): 501 nm
Emission Energy ([5]; deprotonated): 53 kcal/mol
Emission Wavelength ([5]; deprotonated): 540 nm
Absorption Energy [5, 7]: 62.8 kcal/mol
Absorption Wavelength [5, 7]: 455 nm
Emission Energy [5, 7]: 55.4 kcal/mol
Emission Wavelength [5, 7]: 516 nm
Absorption Energy [5, 8]: 59.2 kcal/mol
Absorption Wavelength [5, 8]: 483 nm
Emission Energy [5, 8]: 52.9 kcal/mol
Emission Wavelength [5, 8]: 541 nm
pKa [6]: 6.4
